Test results published in patent US7019019B2, “Matriptase inhibitors and methods of use” (Dendreon Corporation, priority 2002, dated 2006).

Tests used:
Format in all cases: biochemical
[1] = biological target: α-thrombin (Homo sapiens, UniProt P00734); test: Thrombin (fIIa) chromogenic assay (Pefachrome t-PA)
Experimental: (§1) The ability of compounds to act as a selective inhibitor of matriptase activity was assessed by determining the concentration of test-compound which inhibited the activity of matriptase by 50%, (IC50) as described in Example A, and comparing IC50 value for matriptase to that determined for all or some of the following serine proteases: thrombin, recombinant tissue plasminogen activator (rt-PA), plasmin, activated protein C, chymotrypsin, factor Xa and trypsin.
(§2) The buffer used for all assays was HBSA (10 mM HEPES, pH 7.5, 150 mM sodium chloride, 0.1% bovine serum albumin).
(§3) The assay for IC50 determinations was conducted by combining in appropriate wells of a Corning microtiter plate, 50 microliters of HBSA, 50 microliters of the test compound at a specified concentration (covering a broad concentration range) diluted in HBSA (or HBSA alone for V0 (uninhibited velocity) measurement), and 50 microliters of the enzyme diluted in HBSA. Following a 30 minute incubation at ambient temperature, 50 microliters of the substrate at the concentrations specified below were added to the wells, yielding a final total volume of 200 microliters. The initial velocity of chromogenic substrate hydrolysis was measured by the change in absorbance at 405 nm using a Thermo Max® Kinetic Microplate Reader over a 5 minute period in which less than 5% of the added substrate was utilized. The concentration of added inhibitor which caused a 50% decrease in the initial rate of hydrolysis was defined as the IC50 value.
Enzyme activity was determined using the chromogenic substrate, Pefachrome t-PA (CH3SO2-D-hexahydrotyrosine-glycyl-L-Arginine-p-nitroaniline, obtained from Pentapharm Ltd.). The substrate was reconstituted in deionized water prior to use.
The initial velocity of Pefachrome t-PA hydrolysis was measured by the change in absorbance at 405 nm using a Thermo Max® Kinetic Microplate Reader over a 5 minute period in which less than 5% of the added substrate was utilized. The concentration of added inhibitor which caused a 50% decrease in the initial rate of hydrolysis was defined as the IC50 value.

[2] = biological target: T1, Matriptase (Homo sapiens, UniProt Q9Y5Y6); test: Amidolytic assay for inhibition of serine protease activity of matriptase or MTSP1
T1 sequence (Q9Y5Y6 1-855 C731S): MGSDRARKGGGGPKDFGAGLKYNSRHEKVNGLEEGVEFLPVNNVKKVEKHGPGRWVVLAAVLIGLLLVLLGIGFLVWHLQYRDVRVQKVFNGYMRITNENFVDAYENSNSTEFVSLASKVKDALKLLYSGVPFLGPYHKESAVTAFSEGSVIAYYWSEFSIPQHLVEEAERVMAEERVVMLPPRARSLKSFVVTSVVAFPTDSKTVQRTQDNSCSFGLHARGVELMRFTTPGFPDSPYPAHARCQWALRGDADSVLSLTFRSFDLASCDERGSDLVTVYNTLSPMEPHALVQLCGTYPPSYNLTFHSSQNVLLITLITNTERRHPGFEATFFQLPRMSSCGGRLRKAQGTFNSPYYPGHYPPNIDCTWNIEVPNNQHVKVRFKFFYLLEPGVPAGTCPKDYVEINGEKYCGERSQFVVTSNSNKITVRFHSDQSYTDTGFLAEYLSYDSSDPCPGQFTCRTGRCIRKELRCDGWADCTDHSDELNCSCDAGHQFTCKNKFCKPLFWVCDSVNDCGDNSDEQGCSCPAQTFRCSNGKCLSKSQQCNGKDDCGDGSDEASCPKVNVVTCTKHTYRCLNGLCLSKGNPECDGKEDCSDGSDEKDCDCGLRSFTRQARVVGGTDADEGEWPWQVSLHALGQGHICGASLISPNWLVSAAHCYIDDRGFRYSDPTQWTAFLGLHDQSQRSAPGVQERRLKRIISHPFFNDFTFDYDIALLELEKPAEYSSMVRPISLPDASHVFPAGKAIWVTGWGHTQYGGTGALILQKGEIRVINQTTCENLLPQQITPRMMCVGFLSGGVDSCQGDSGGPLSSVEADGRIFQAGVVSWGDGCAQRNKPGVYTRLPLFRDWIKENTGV

[3] = biological target: T2, Factor Xa (Homo sapiens, UniProt P00742); test: Factor Xa chromogenic assay (S-2765); settings: read-out: Ki FXa
T2 construct: purchased Enzyme Research Laboratories, Inc. (South Bend, Ind.)
T2 sequence (P00742 235-488 limits assumed): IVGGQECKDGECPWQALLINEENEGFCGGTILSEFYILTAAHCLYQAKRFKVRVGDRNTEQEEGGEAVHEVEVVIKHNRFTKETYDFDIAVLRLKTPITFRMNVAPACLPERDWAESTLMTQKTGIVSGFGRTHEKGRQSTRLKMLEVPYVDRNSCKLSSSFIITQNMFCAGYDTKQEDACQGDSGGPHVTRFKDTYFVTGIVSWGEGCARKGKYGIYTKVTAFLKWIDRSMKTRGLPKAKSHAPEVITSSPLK
T2 sequence (P00742 41-179 partner limits assumed): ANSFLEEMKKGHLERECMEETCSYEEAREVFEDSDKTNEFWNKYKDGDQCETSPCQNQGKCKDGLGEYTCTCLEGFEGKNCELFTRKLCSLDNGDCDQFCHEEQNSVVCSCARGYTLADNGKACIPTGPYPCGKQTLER
Experimental: as §1, §2
as §3, with “The concentration of added inhibitor which caused a 50% decrease in the initial rate of hydrolysis was defined as the IC50 value.” left out
Factor Xa catalytic activity was determined using the chromogenic substrate S-2765 (N-benzyloxycarbonyl-D-arginine-L-glycine-L-arginine-p-nitro aniline), obtained from DiaPharma Group (Franklin, Ohio). All substrates were reconstituted in deionized water prior to use. […] Purified human Factor X was obtained from Enzyme Research Laboratories, Inc. (South Bend, Ind.) and Factor Xa (FXa) was activated and prepared from it as described [Bock, P. E., Craig, P. A., Olson, S. T., and Singh, P. Arch. Biochem. Biophys. 273:375-388 (1989)]. The enzyme was diluted into HBSA prior to assay in which the final concentration was 0.25 nM.

[4] = biological target: plasmin (Homo sapiens, UniProt P00747); test: Plasmin chromogenic assay (S-2366)
plasmin, sequence (P00747 581-810 limits assumed): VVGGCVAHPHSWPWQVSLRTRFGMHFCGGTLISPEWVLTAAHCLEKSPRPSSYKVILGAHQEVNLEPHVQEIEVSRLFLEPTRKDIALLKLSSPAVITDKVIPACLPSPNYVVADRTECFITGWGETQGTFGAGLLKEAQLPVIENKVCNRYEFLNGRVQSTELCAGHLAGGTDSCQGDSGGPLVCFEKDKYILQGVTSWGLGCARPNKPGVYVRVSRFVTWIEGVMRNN
plasmin, sequence (P00747 97-580 partner limits assumed): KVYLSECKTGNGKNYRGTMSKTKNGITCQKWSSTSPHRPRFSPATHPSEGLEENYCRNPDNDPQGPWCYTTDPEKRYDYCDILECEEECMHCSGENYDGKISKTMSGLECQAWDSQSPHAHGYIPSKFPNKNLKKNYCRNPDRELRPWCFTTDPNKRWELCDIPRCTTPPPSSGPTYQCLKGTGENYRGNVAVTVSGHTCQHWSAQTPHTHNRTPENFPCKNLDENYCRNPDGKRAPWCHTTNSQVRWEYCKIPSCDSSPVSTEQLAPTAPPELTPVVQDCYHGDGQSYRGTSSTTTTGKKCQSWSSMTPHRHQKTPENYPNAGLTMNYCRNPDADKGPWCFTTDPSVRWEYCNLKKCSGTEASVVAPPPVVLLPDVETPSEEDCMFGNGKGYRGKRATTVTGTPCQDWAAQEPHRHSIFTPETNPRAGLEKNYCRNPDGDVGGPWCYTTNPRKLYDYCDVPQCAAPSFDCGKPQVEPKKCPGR
Experimental: as §1, §2, §3
Plasmin catalytic activity was determined using the chromogenic substrate, S-2366 [L-pyroglutamyl-L-prolyl-L-arginine-p-nitroaniline hydrochloride], which was obtained from DiaPharma group. The substrate was made up in deionized water followed by dilution in HBSA prior to the assay in which the final concentration was 300 micromolar (about 2.5-times Km). Purified human plasmin was obtained from Enzyme Research Laboratories, Inc. The enzyme was diluted into HBSA prior to assay in which the final concentration was 1.0 nM.

[5] = biological target: T3, (Homo sapiens, UniProt Q9UL52); test: In vitro enzyme assay for specificity: Endothelin 1
T3 sequence (Q9UL52 192-423): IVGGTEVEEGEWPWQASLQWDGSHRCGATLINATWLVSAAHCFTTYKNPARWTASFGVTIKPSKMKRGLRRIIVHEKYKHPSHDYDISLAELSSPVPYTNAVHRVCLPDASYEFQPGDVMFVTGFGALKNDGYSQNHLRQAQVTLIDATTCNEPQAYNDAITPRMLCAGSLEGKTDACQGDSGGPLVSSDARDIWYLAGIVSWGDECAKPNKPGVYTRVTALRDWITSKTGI

[6] = biological target: T4, (Homo sapiens, UniProt Q9BYE2); test: In vitro enzyme assay for specificity: Endothelin 2
T4 sequence (Q9BYE2 326-586): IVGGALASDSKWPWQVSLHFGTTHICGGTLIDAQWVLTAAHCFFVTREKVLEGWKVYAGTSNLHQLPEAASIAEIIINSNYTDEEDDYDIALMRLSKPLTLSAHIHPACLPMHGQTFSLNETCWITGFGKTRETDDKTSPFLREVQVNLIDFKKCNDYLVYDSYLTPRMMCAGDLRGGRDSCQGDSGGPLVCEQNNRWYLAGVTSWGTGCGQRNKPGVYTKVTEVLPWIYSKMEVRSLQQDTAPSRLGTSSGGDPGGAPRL

Compound | Ki [1] | Ki [2] | Ki [3] | Ki [4] | Ki [5] | Ki [6]
COC(=O)CC[C@](Cc1cccc(C(=N)N)c1)(NC(=O)OC)C(=O)NCC(=O)NCc1nc(C(=N)N)cs1 [MeOCO-(Me)E(α-(3-Amdn)Bn)-G-(4-Amdn)thiazole-2-MeAm] | > 2500 nM | 250 to 500 nM | > 2500 nM | – | – | –
COC(=O)NC(CCS(C)(=O)=O)(Cc1ccnc(N)c1)C(=O)NCC(=O)NCc1ccc(C(=N)N)s1 (stereo not drawn) [N-MeOCO-(α-(3-Am)4-pyrMe)M(O2)-G-(2-Amdn)thiophene-5-MeAm] | > 2500 nM | 100 to 250 nM | 250 to 500 nM | – | – | –
COC(=O)CCC(N)(Cc1cccc(C(=N)N)c1)C(=O)NCC(=O)NCc1ccc(C(=N)N)s1 (stereo not drawn) [(Me)E(alpha-(3-Amdn)Bn)-G-(2-Amdn)thiophene-5MeAm] | – | 100 to 250 nM | – | – | – | –
COC(=O)NC(CCC(=O)OC(C)(C)C)(Cc1cccc(C(=N)N)c1)C(=O)NCC(=O)NCc1ccc(C(=N)N)cc1 (stereo not drawn) [MeOCO-E(O-t-Butyl)(alpha-(3-Amdn)Bn)-G-(4-Amdn)BnAm] | 250 to 500 nM | 100 to 250 nM | > 2500 nM | – | – | –
3(3-Amdn)Bn-3(Methsulfone)hydantoin-G-(2-Amdn)thiazole-2-MeAm | > 2500 nM | 100 to 250 nM | > 2500 nM | – | > 2500 nM | > 2500 nM
iBoc-(Me)E(R)(alpha-(3-Amdn)Bn)-G-(2-Amdn)thiophene-5MeAm | 250 to 500 nM | 250 to 500 nM | – | – | – | –

More lines, main results first:

Ki [1] | Ki [2] | Ki [3] | Ki [4] | Compound | Ki [5] | Ki [6]
500 to 2500 nM | 100 to 250 nM | 500 to 2500 nM | 500 to 2500 nM | N=C(N)c1cccc(CC(N)(CCC(=O)O)C(=O)NCC(=O)NCc2ccc(C(=N)N)s2)c1 (stereo not drawn) [E(alpha-(3-Amdn)Bn)-G-(2-Amdn)thiophene-5MeAm] | – | –
> 2500 nM | < 100 nM | 500 to 2500 nM | > 2500 nM | COC(=O)N[C@](CCC(=O)OC(C)(C)C)(Cc1cccc(C(=N)N)c1)C(=O)NCC(=O)NCc1ccc(C(=N)N)s1 [MeOCO(t-Bu)E(R)(alpha-(3-Amdn)Bn)-G-(2-Amdn)thiophene-5-MeAm] | – | –
500 to 2500 nM | < 100 nM | > 2500 nM | 500 to 2500 nM | N=C(N)c1cccc(C[C@@]2(C(=O)NCC(=O)NCc3ccc(C(=N)N)s3)CCC(=O)N2)c1 [α-(3-Amdn)BnPyro-G-(2-Amdn)thiophene-5-MeAm] | – | –
– | < 100 nM | 500 to 2500 nM | > 2500 nM | alpha-(3-amidinoBn)MeSO2-G-(2-Amdn)thiophene-5-MeAm | > 2500 nM | –
